Legend:
HRV3C = target: T1, HRV3C (Human rhinovirus 14, UniProt P03303); assay: biochemical; set-up: species or system HRV; conditions: HRV3C, 30 mins preincubation, SAMDI-MS; read-out: HRV IC50 (bound)
T1 construct: 3CLpro and HRV3C was added using a Multidrop Combi

[1] = system: B.1.1.7 lineage SARS-CoV-2; assay: microbe, parasite or virus in culture; format: cell-based; conditions: Severe acute respiratory syndrome coronavirus 2, 96 h; read-out: A549-dual_ACE2_TMPRSS2 (EC50)
SARS-Cov-2 3CLpro = target: T2, SARS-Cov-2 3CLpro (Severe acute respiratory syndrome coronavirus 2, UniProt P0DTD1); assay: biochemical; conditions: 3CLpro, 30 mins preincubation, SAMDI-MS; read-out: SARS-Cov-2 IC50 (class)
T2 construct: 3CLpro and HRV3C was added using a Multidrop Combi

[2] = system: human beta-coronavirus OC43; assay: OC43 coronavirus antiviral assay in HeLa cells (cytopathic effect, cell-titer-glo); format: cell-based; conditions: Betacoronavirus 1, OC43, HeLa, 144 h, 6 days at 33° C., read-out: EC50 (class)

T1 sequence (P03303 1538-1719): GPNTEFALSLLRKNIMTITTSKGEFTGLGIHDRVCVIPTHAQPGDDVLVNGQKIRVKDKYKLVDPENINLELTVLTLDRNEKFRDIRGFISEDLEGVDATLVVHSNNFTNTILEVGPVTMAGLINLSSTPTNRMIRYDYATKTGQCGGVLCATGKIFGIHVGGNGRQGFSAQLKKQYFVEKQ

Row | Compound | IC50 (HRV3C) | EC50 [1] | IC50 (SARS-Cov-2 3CLpro) | EC50 [2]
1 | CC(C)(C)[C@H](NC(=O)C(F)(F)F)C(=O)N1C[C@H]2[C@@H]([C@H]1C(=O)N[C@H](C#N)C[C@@H]1CCNC1=O)[C@H]1C=C[C@@H]2C1O (mixture of isomers) [Example 90, (1R,2R,3S,6S,7S)—N-[(1S)-1-cyano-2-[(3S)-2-oxopyrrolidin-3-yl]ethyl]-4-[(2S)-3,3-dimethyl-2-(2,2,2-trifluoroacetamido)butanoyl]-10-hydroxy-4-azatricyclo[5.2.1.0^{2,6}]dec-8-ene-3-carboxamide] | > 10000 nM | 1000 to 10000 nM | 20 to 200 nM | 
2 | C[C@@H](OC1CC1)[C@H](NC(=O)C(F)(F)C(F)(F)F)C(=O)N1C[C@H]2[C@@H]([C@H]1C(=O)N[C@H](C#N)C[C@@H]1CCNC1=O)[C@H]1C=C[C@@H]2C1 [Compound 101, (1S,3aR,4S,7R,7aS)-N-((S)-1-cyano-2-((S)-2-oxopyrrolidin-3-yl)ethyl)-2-(O-cyclopropyl-N-(2,2,3,3,3-pentafluoropropanoyl)-L-threonyl)-2,3,3a,4,7,7a-hexahydro-1H-4,7-methanoisoindole-1-carboxamide] | > 500 nM | < 100 nM | < 20 nM | < 100 nM
3 | CC(C)([C@H](NC(=O)C(F)(F)F)C(=O)N1C[C@H]2[C@@H]([C@H]1C(=O)N[C@H](C#N)C[C@@H]1CCNC1=O)[C@H]1C=C[C@@H]2C1)C(F)(F)F [Compound 102a, (1S,3aR,4S,7R,7aS)-N-((S)-1-cyano-2-((S)-2-oxopyrrolidin-3-yl)ethyl)-2-((S)-4,4,4-trifluoro-3,3-dimethyl-2-(2,2,2-trifluoroacetamido)butanoyl)-2,3,3a,4,7,7a-hexahydro-1H-4,7-methanoisoindole-1-carboxamide] | > 500 nM | < 100 nM | < 20 nM | < 100 nM
4 | CC(C)(OCC1CC1)[C@H](NC(=O)C(F)(F)C(F)(F)F)C(=O)N1C[C@H]2[C@@H]([C@H]1C(=O)N[C@H](C#N)C[C@@H]1CCNC1=O)[C@H]1C=C[C@@H]2C1 [Compound 103] | > 500 nM | < 100 nM | < 20 nM | < 100 nM
5 | CC(C)(C)[C@H](NC(=O)C(F)(F)F)C(=O)N1C[C@@H]2[C@@H]3CC[C@@H](C3)[C@@H]2[C@H]1C(=O)N[C@H](C#N)CC1CC2(CC(F)(F)C2)NC1=O (stereo partly drawn) [Compound 104, (1S,2S,3S,6R,7R)—N-[(1S)-1-cyano-2-{2,2-difluoro-6-oxo-5-azaspiro[3.4]octan-7-yl}ethyl]-4-[(2S)-3,3-dimethyl-2-(2,2,2-trifluoroacetamido)butanoyl]-4-azatricyclo[5.2.1.0^{2,6}]decane-3-carboxamide] | > 500 nM | < 100 nM | < 20 nM | 100 to 1000 nM
6 | CC1(C)NC(=O)[C@H](C[C@@H](C#N)NC(=O)[C@@H]2[C@@H]3[C@H](CN2C(=O)[C@@H](NC(=O)C(F)(F)F)C(C)(C)C)[C@@H]2C=C[C@H]3C2)O1 [Compound 105, (1S,3aR,4S,7R,7aS)-N-((S)-1-cyano-2-((S)-2,2-dimethyl-4-oxooxazolidin-5-yl)ethyl)-2-((S)-3,3-dimethyl-2-(2,2,2-trifluoroacetamido)butanoyl)-2,3,3a,4,7,7a-hexahydro-1H-4,7-methanoisoindole-1-carboxamide] | > 500 nM | < 100 nM | 20 to 200 nM | 100 to 1000 nM
7 | CC(C)(C)[C@H](NC(=O)C(F)(F)C(F)(F)F)C(=O)N1C[C@H]2[C@@H]([C@H]1C(=O)N[C@H](C#N)CC1CC3(COC3)NC1=O)[C@H]1C=C[C@@H]2C1 (stereo partly drawn) [Compound 107, (1R,2S,3S,6R,7S)—N-[(1S)-1-cyano-2-{6-oxo-2-oxa-5-azaspiro[3.4]octan-7-yl}ethyl]-4-[(2S)-3,3-dimethyl-2-(2,2,3,3,3-pentafluoropropanamido)butanoyl]-4-azatricyclo[5.2.1.0^{2,6}]dec-8-ene-3-carboxamide] | > 500 nM | < 100 nM | < 20 nM | < 100 nM
8 | CC(C)(C)[C@H](NC(=O)C(F)(F)F)C(=O)N1C[C@H]2[C@@H]([C@H]1C(=O)N[C@H](C#N)CC1C[C@H](C(F)(F)F)NC1=O)[C@H]1C=C[C@@H]2C1 (stereo partly drawn) [Compound 108, (1R,2S,3S,6R,7S)—N-[(1S)-1-cyano-2-[(5R)-2-oxo-5-(trifluoromethyl)pyrrolidin-3-yl]ethyl]-4-[(2S)-3,3-dimethyl-2-(2,2,2-trifluoroacetamido)butanoyl]-4-azatricyclo[5.2.1.0^{2,6}]dec-8-ene-3-carboxamide] | > 500 nM | < 100 nM | < 20 nM | < 100 nM
9 | CC(C)(C)[C@H](NC(=O)CC(F)(F)F)C(=O)N1C[C@H]2[C@@H]([C@H]1C(=O)N[C@H](C#N)C[C@@H]1Oc3ccncc3NC1=O)[C@H]1C=C[C@@H]2C1 [Compound 110, (1S,3aR,4S,7R,7aS)-N-((S)-1-cyano-2-((S)-3-oxo-3,4-dihydro-2H-pyrido[4,3-b][1,4]oxazin-2-yl)ethyl)-2-((S)-3,3-dimethyl-2-(3,3,3-trifluoropropanamido)butanoyl)-2,3,3a,4,7,7a-hexahydro-1H-4,7-methanoisoindole-1-carboxamide] | > 500 nM | < 100 nM | < 20 nM | < 100 nM
10 | CC(C)(C)[C@H](NC(=O)C(F)(F)F)C(=O)N1C[C@H]2[C@@H]([C@H]1C(=O)N[C@H](C#N)C[C@@H]1Oc3ccncc3NC1=O)[C@H]1C=C[C@@H]2C1(F)F [Compound 111] | > 500 nM | 100 to 1000 nM | < 20 nM | < 100 nM
11 | CC(C)(C)[C@H](NC(=O)C(F)(F)F)C(=O)N1C[C@H]2[C@@H]([C@H]1C(=O)N[C@H](C#N)C[C@@H]1Oc3cccnc3NC1=O)[C@H]1C=C[C@@H]2C1 [Compound 112, (1S,3aR,4S,7R,7aS)-N-((S)-1-cyano-2-((S)-3-oxo-3,4-dihydro-2H-pyrido[3,2-b][1,4]oxazin-2-yl)ethyl)-2-((S)-3,3-dimethyl-2-(2,2,2-trifluoroacetamido)butanoyl)-2,3,3a,4,7,7a-hexahydro-1H-4,7-methanoisoindole-1-carboxamide] | > 500 nM | < 100 nM | < 20 nM | 100 to 1000 nM
12 | CC(C)(C)[C@H](NC(=O)C(F)(F)F)C(=O)N1C[C@H]2[C@@H]([C@H]1C(=O)N[C@H](C#N)C[C@@H]1Oc3cnccc3NC1=O)[C@H]1C=C[C@@H]2C1 [Compound 113] | > 500 nM | < 100 nM | < 20 nM | < 100 nM
13 | CC(C)(C)[C@H](NC(=O)C(F)(F)C(F)(F)F)C(=O)N1C[C@H]2[C@@H]([C@H]1C(=O)N[C@H](C#N)C[C@@H]1OCCNC1=O)[C@H]1C=C[C@@H]2C1 [Compound 115, (1S,3aR,4S,7R,7aS)-N-((S)-1-cyano-2-((S)-3-oxomorpholin-2-yl)ethyl)-2-((S)-3,3-dimethyl-2-(2,2,3,3,3 pentafluoropropanamido)butanoyl)-2,3,3a,4,7,7a-hexahydro-1H-4,7-methanoisoindole-1-carboxamide] | > 500 nM | < 100 nM | < 20 nM | < 100 nM
14 | CC(C)(C)[C@H](NC(=O)C(F)(F)Cl)C(=O)N1C[C@H]2[C@@H]([C@H]1C(=O)N[C@H](C#N)C[C@@H]1OCCNC1=O)[C@H]1C=C[C@@H]2C1 [Compound 116] | > 500 nM | < 100 nM | < 20 nM | < 100 nM
15 | CC(C)(C)[C@H](NC(=O)C(F)(F)F)C(=O)N1C[C@H]2[C@@H]([C@H]1C(=O)N[C@H](C#N)C[C@@H]1OCCNC1=O)[C@H]1C=C[C@@H]2C1(F)F [Compound 117] | > 500 nM | < 100 nM | < 20 nM | < 100 nM
16 | CC(C)(C)[C@H](NC(=O)C(F)(F)C(F)(F)F)C(=O)N1C[C@@H]2[C@H]3C[C@@H]([C@@H]2[C@H]1C(=O)N[C@H](C#N)C[C@@H]1OCCNC1=O)[C@H](F)C3 [Compound 118, (1S,2R,3S,6R,7S,9R)—N-[(1S)-1-cyano-2-[(2S)-3-oxomorpholin-2-yl]ethyl]-4-[(2S)-3,3-dimethyl-2-(2,2,3,3,3-pentafluoropropanamido)butanoyl]-9-fluoro-4-azatricyclo[5.2.1.0^{2,6}]decane-3-carboxamide] | > 500 nM | < 100 nM | < 20 nM | < 100 nM
17 | CC(C)(C)[C@H](NC(=O)C(F)(F)F)C(=O)N1C[C@@H]2[C@H]3C[C@H](C[C@@H]3F)[C@@H]2[C@H]1C(=O)N[C@H](C#N)C[C@@H]1OCCNC1=O [Compound 119] | > 500 nM | 100 to 1000 nM | 20 to 200 nM | 100 to 1000 nM
18 | CC(C)(C)[C@H](NC(=O)C(F)(F)F)C(=O)N1C[C@H]2[C@@H]([C@H]1C(=O)N[C@H](C#N)C[C@@H]1OCC3(CC3)NC1=O)[C@H]1C=C[C@@H]2C1 [Compound 120] | > 500 nM | < 100 nM | < 20 nM | < 100 nM
19 | CC(C)(C)[C@H](NC(=O)C(F)(F)F)C(=O)N1C[C@H]2[C@@H]([C@H]1C(=O)N[C@H](C#N)C[C@@H]1OCCCNC1=O)[C@H]1C=C[C@@H]2C1 [Compound 121, (1R,2S,3S,6R,7S)—N-[(1S)-1-cyano-2-[(2S)-3-oxo-1,4-oxazepan-2-yl]ethyl]-4-[(2S)-3,3-dimethyl-2-(2,2,2-trifluoroacetamido)butanoyl]-4-azatricyclo[5.2.1.0^{2,6}]dec-8-ene-3-carboxamide] | > 500 nM | < 100 nM | < 20 nM | < 100 nM
20 | [2H]C([2H])([2H])C([C@H](NC(=O)C(F)(F)F)C(=O)N1C[C@H]2[C@@H]([C@H]1C(=O)N[C@H](C#N)C[C@@H]1CCNC1=O)[C@H]1C=C[C@@H]2C1)(C([2H])([2H])[2H])C([2H])([2H])[2H] [Compound 124] | > 500 nM |  | < 20 nM | 
